According to patent US9340788B2 (priority 2007, dated 2016):

System: HCMV
Assay: HCMV IE1 / viral gene expression, western blot of infected cells
Assay type: cell-based, Human cytomegalovirus
Conditions: for HCMV IE1 gene expression: IMC-3G3 10 μg/ml 12 h or Gleevec 100 nM 1 h pre-treatment, western blot
Procedure: (A) pp65 immunofluorescence after HCMV treatment (1 h, 4° C.) followed by shifting to 37° C. for indicated times. Rows represent (top to bottom): HEL, PDGFRα null fibroblasts, parental fibroblasts, null fibroblasts overexpressing hPDGFRα, HEL transfected with control, or PDGFRα siRNA. Nuclei were stained with DAPI. (B) Average±S.D. pp65 positive/100 cells counted in triplicate from (A). (C) Mock or HCMV infected cells were analyzed by western blotting with the indicated antibodies. Lanes 1-4 indicate HEL, 325S, PDGFRα null and PDGFRα null over-expressing hPDGFRα, respectively. (D) HEL transfected with control or PDGFRα siRNA were mock (lanes 1) or HCMV-treated (lanes 2) and subjected to western blots with indicated antibodies. (E) Western blot of HEL and U87 lysates after infection with mock (lanes 1), HCMV (lanes 2), or HCMV pretreated with IMC-3G3 (10 μg/ml, 12 h, lanes 3) or Gleevec (100 nM, 1 h, lanes 4). (F) PDGFRα siRNA treated cells infected with indicated HCMV strains and immunostained for IE1 12 hpi (primary infection). 6 dpi, supernatants were used to infect naïve HEL cells, followed by IE1 immunostaining and quantification (secondary infection). Average (n=6) values±S.D. are shown.
HUVEC cells were pre-treated with IMC-3G3 (10 μg/ml, Imclone, 12 h), or Gleevec (100 nM, 1 h) prior to HCMV or mock infection. 12 hours post-infection, cell lysates were analyzed by western blot for the presence of IE1 gene product. […] The same blot was stripped and re-probed for actin (lower panel). Lane designation is 1—Mock, 2—HCMV, 3—IMC-3G3+HCMV, 4—Gleevec+HCMV.
Upper panel: HEL cells pretreated with anti-human PDGFRα antibody (10 ng/ml, for 30 min, clone AF-307-NA from R&D; lanes 1 and 3) or with AG 1295 (lane 4, […], from Calbiochem) were stimulated with Towne HCMV (lanes 2 through 4) or Mock infected (lane 1) for 10 min at 37 C. Cells were washed and further incubated for 2 h at 37 C (to allow expression of IE1 gene product). Afterwards, cells were harvested in RIPA buffer and processed for western blotting as described.
Western Blot, Immunoprecipitation, and Immunofluorescence analyses. For stimulation experiments, cells were serum-starved for 24 h, followed by stimulation with HCMV (MOI of 0.5), PDGF-AA (5-10 ng/ml, from R&D Systems), or mock, for 10 minutes. In some cases, cells were pre-treated with IMC-3G3 (ImClone Inc.) at 10 µg/ml (2 or 12 h) or Gleevec® (100 nM, 1 h) prior to HCMV exposure. Cell lysates were analyzed by SDS-PAGE. Antibodies used were as follows: polyclonal anti-PDGFRα ( 1/500), phosphor-Tyrosine clone 4G10 ( 1/1000), and monoclonal anti-p85 PI3-K ( 1/1000), (Upstate Biotechnology), anti HCMV IE1 MAB810 (Chemicon; 1/1000), anti HCMV pp65 (Novocastra, 1/1000), anti-phosphor-PDGFRα ( 1/500, pTyr 754), anti-phosphor-Akt (Ser 473, 1/1000) and total Akt ( 1/1000; all from Cell Signaling). Anti-actin polyclonal control antibody was used ( 1/500, Sigma). Immunoprecipitations were performed using protein G (Pierce) according to manufacturer's instructions. For immunofluorescence, monoclonal HCMV pp65 and phosphor-PDGFRα (p-Tyr 754, Santa Cruz Biotechnology) were used, overnight at 4° C., followed by 1 hour incubation with secondary antibodies conjugated to Alexa-488, or Alexa 568 ( 1/5,000, Molecular Probes). Nuclei were counterstained with DAPI. Co-immunoprecipitation experiments were performed using full length soluble purified recombinant gB (gB 680, from Don Diamond, City of Hope, Calif.) and detergent soluble extract of HEL cells generated in lysis buffer (1% NP-40, 75 mM NaCl and 50 mM Tris-HCl). 500 μg of protein from total cell extract was incubated with 25 μg of gB 680 in lysis buffer in the presence of an anti-gB (Virusys, Inc) or anti-PDGFRα (R&D) antibody overnight at 4° C. Immune complexes were recovered with protein A-Sepharose beads (2 hr incubation), denatured and separated on SDS-PAGE for western blot with anti-gB (Virusys, Inc) or anti-PDGFRα (Cell Signaling Technology) antibodies.

IMC-3G3: humanized PDGFRα blocking antibody (ImClone Inc.)
completely inhibited: HCMV IE1 gene expression (HEL cells) | HCMV IE1 expression (HUVEC, pre-treated with IMC-3G3 10 μg/ml 12 h or Gleevec 100 nM 1 h, western blot 12 hours post-infection) | HCMV IE1 gene expression (U87 glioma cells) | HCMV gene expression (human epithelial, endothelial, and fibroblast cells)
